Assays:
Assay type in all cases: in vivo
[1] = test system: Amaranthus; assay: Pre-emergence herbicidal action (Example B1); set-up: key: 1=total damage; 9=no action; details: 1 kg/ha, evaluated 4 weeks later, rating scale 1-9 (1=total damage, 9=no action)
Experimental: (§1) Pre-emergence Herbicidal Action Monocot and dicot test plants are sown in standard soil in plastic pots. Immediately after sowing, the test substances are sprayed on as an aqueous suspension [prepared from a wettable powder (Example F3, b) of WO 97/34485)] or as an emulsion [prepared from an emulsion concentrate (Example F1 c) of WO 97/34485)] in an optimal dosage (500 l of water/ha). The test plants are then cultivated in the greenhouse under optimum conditions. The test is evaluated 4 weeks later on a rating scale of 1-9 (1=total damage, 9=no action). Ratings of 1 to 4 (especially 1 to 3) denote good to very good herbicidal action.

[2] = test system: Chenopodium; assay: Pre-emergence herbicidal action (Example B1); set-up: key: 1=total damage; 9=no action; details: 1 kg/ha, evaluated 4 weeks later, rating scale 1-9 (1=total damage, 9=no action)
Experimental: as §1

[3] = test system: Digitaria; assay: Pre-emergence herbicidal action (Example B1); set-up: key: 1=total damage; 9=no action; details: 1 kg/ha, evaluated 4 weeks later, rating scale 1-9 (1=total damage, 9=no action)
Experimental: as §1

[4] = test system: Panicum; assay: Pre-emergence herbicidal action (Example B1); set-up: key: 1=total damage; 9=no action; details: 1 kg/ha, evaluated 4 weeks later, rating scale 1-9 (1=total damage, 9=no action)
Experimental: as §1

[5] = test system: Setaria; assay: Pre-emergence herbicidal action (Example B1); set-up: key: 1=total damage; 9=no action; details: 1 kg/ha, evaluated 4 weeks later, rating scale 1-9 (1=total damage, 9=no action)
Experimental: as §1

[6] = test system: Stellaria; assay: Pre-emergence herbicidal action (Example B1); set-up: key: 1=total damage; 9=no action; details: 1 kg/ha, evaluated 4 weeks later, rating scale 1-9 (1=total damage, 9=no action)
Experimental: as §1

[7] = test system: Veronica; assay: Pre-emergence herbicidal action (Example B1); set-up: key: 1=total damage; 9=no action; details: 1 kg/ha, evaluated 4 weeks later, rating scale 1-9 (1=total damage, 9=no action)
Experimental: as §1

[8] = test system: Amaranthus; assay: Post-emergence herbicidal action (Example B2); set-up: key: 1=total damage; 9=no action; details: 1 kg/ha, post-emergence at 2- to 3-leaf stage, evaluated 2 to 3 weeks later, rating scale 1-9 (1=total damage, 9=no action)
From the text: as §1, with “Post-emergence Herbicidal” for “Pre-emergence Herbicidal”, “pots. At the 2- to 3-leaf stage,” for “pots. Immediately after sowing,”, “test plants” for “test substances”, “sprayed with test substances” for “sprayed on”, “evaluated 2 to 3” for “evaluated 4”

[9] = test system: Chenopodium; assay: Post-emergence herbicidal action (Example B2); set-up: key: 1=total damage; 9=no action; details: 1 kg/ha, post-emergence at 2- to 3-leaf stage, evaluated 2 to 3 weeks later, rating scale 1-9 (1=total damage, 9=no action)
From the text: as §1, with “Post-emergence Herbicidal” for “Pre-emergence Herbicidal”, “pots. At the 2- to 3-leaf stage,” for “pots. Immediately after sowing,”, “test plants” for “test substances”, “sprayed with test substances” for “sprayed on”, “evaluated 2 to 3” for “evaluated 4”

[10] = test system: Stellaria; assay: Post-emergence herbicidal action (Example B2); details: 1 kg/ha, post-emergence at 2- to 3-leaf stage, evaluated 2 to 3 weeks later, rating scale 1-9 (1=total damage, 9=no action)
From the text: as §1, with “Post-emergence Herbicidal” for “Pre-emergence Herbicidal”, “pots. At the 2- to 3-leaf stage,” for “pots. Immediately after sowing,”, “test plants” for “test substances”, “sprayed with test substances” for “sprayed on”, “evaluated 2 to 3” for “evaluated 4”

SMILES	Preemergence test rating, Amaranthus [1]	Preemergence test rating, Chenopodium [2]	Preemergence test rating, Digitaria [3]	Preemergence test rating, Panicum [4]	Preemergence test rating, Setaria [5]	Preemergence test rating, Stellaria [6]	Preemergence test rating, Veronica [7]	Postemergence test rating, Amaranthus [8]	Postemergence test rating, Chenopodium [9]	Postemergence test rating, Stellaria [10]
COc1ccccc1OCC#Cc1cccc(CC#N)c1 [Compound 1.033]	1	1	1	2	2	1	1	4	2	2
COc1cc(C#N)ccc1OCC#Cc1ccc(Cl)cc1 [Compound 1.098]	1	1	3	1	1	1	1	1	1	2
COc1cc(C#N)ccc1OCC#Cc1cccc(Br)c1 [Compound 1.104]	1	1	7	7	4	1	1	2	2	3
COc1cc(C#N)ccc1OCC#Cc1cccc(CC#N)c1 [Compound 1.109]	1	1	1	1	6	1	1	1	4	2
COc1cc(CC#N)ccc1OCC#Cc1cccc(CC#N)c1 [Compound 1.168]	1	2	3	1	4	1	4	–	–	–
COc1cc([N+](=O)[O-])ccc1OCC#Cc1cccc(CC#N)c1 [Compound 1.198]	1	1	1	1	3	1	1	1	1	3
COc1cc(C#N)ccc1OCC#Cc1cccc(Cl)c1 [Entry 1.095]	–	–	–	–	–	–	–	1	2	2
